{"source": "patent US11950925B2", "about": "“Managing fluid levels in a patient and associated devices, systems, and methods” (REPRIEVE CARDIOVASCULAR, INC., priority 2019, dated 2024)", "key": {"[1]": {"details": "human, in vivo", "method": "(§1) Clinical data associated with embodiments of the present technology were obtained from patient tests conducted at the Tbilisi Heart and Vascular Center in Tbilisi, Georgia. 15 patients underwent fluid therapy in which diuretic(s) and hydration fluid were administered via the Reprieve Cardiovascular™ Second Generation System according to the methods described herein (“treatment group”). As described below, data obtained from the tests indicate that the net fluid loss and net sodium loss levels achieved represent a significant improvement over conventional methods for treating fluid overload conditions, and generally indicate that embodiments of the present technology produce improved diuresis and renal safety.\nEstimated glomerular filtration rate (eGFR) is a measure of kidney function and stage of kidney disease, and is based on patient factors including blood creatinine and a patient's age, body size, and gender.\nBlood pressure measurements of the patients in the treatment group serve as another indication that the fluid therapy was well received by the patients. For example, the average mean arterial pressure (MAP) of patients dropped from 90.1 mmHg to 88.2 mmHg at the time of patient discharge, and then to 87.2 mmHg after 30 days. Additionally, average systolic pressure of the patients dropped from 121 mmHg to 119 mmHg at the time of patient discharge, and then to 117 mmHg after 30 days."}, "[2]": {"test": "Fluid overload therapy with diuretic (Lasix) and hydration fluid via the Reprieve Cardiovascular Second Generation System: diuresis, fluid, sodium and weight outcomes", "assay_type": "in vivo, human", "method": "as §1\nTable 1 below indicates total urine output, net fluid loss (not including intake fluid), net fluid loss (including intake fluid), net sodium balance, and average diuretic (Lasix) dosage rate for each patient in the treatment group, as measured across a therapy timespan. […] Additionally, the average therapy timespan for the treatment group was 31 hours, whereas the average therapy timespan for standard of care therapy in the literature is approximately 5 days. […] Over the 30 days, none of the patients in the treatment group regained the weight that lost during therapy or were readmitted for additional treatment.\nAs also shown in Table 1, the average net sodium balance for all patients in the treatment group decreased by nearly 800 millimoles (mmol) over the therapy timespan. When normalized over a 24-hour period, the average and median net sodium balance was −14 grams (g) and −15 g respectively."}, "[3]": {"details": "average of 15 treatment group patients, average therapy timespan 31 h"}, "[4]": {"details": "individual patient, over that patient's therapy timespan, Lasix plus hydration fluid"}, "[5]": {"details": "normalized over a 24-hour period"}}, "note": "Several values for one entry are separate records, joined by “and”; a condition that tells them apart may be missing. Equal values may be shown once."}
{"smiles": "NS(=O)(=O)c1cc(C(=O)O)c(NCc2ccco2)cc1Cl", "note": "[Lasix, Furosemide]", "values": [{"measurement": "average decrease of eGFR", "setting": "[1]", "value": 1.6}, {"measurement": "average increase in creatinine", "setting": "[1]", "value": 0.11, "unit": "mg/dL"}, {"measurement": "tolerability of the fluid therapy", "setting": "[1]", "value": "generally well tolerated"}, {"measurement": "decrease of average net sodium balance", "setting": "[2]; all treatment group patients, over the therapy timespan", "value": "~800", "unit": "mmol"}, {"measurement": "Net Fluid Loss (including oral fluid intake), average", "setting": "[2]; [3]", "value": "−5,919 ml"}, {"measurement": "Net Fluid Loss (not including oral fluid intake), average", "setting": "[2]; [3]", "value": "−6,948 ml"}, {"measurement": "Total Urine, average", "setting": "[2]; [3]", "value": "12,744 ml"}, {"measurement": "Net Fluid Loss (including oral fluid intake)", "setting": "[2]; [4]", "value": "−4,868 ml and −4,247 ml and −2,232 ml and −10,787 ml and −1,021 ml and −6,276 ml and −5,625 ml and −3,636 ml and −10,299 ml and −3,724 ml and −9,156 ml and −6,583 ml and −6,186 ml and −10,301 ml and −3,844 ml"}, {"measurement": "Net Fluid Loss (not including oral fluid intake)", "setting": "[2]; [4]", "value": "−6,001 ml and −4,590 ml and −2,993 ml and −11,913 ml and −2,003 ml and −8,306 ml and −6,941 ml and −3,953 ml and −12,269 ml and −4,364 ml and −9,995 ml and −7,888 ml and −7,018 ml and −11,333 ml and −4,704 ml"}, {"measurement": "Total Urine", "setting": "[2]; [4]", "value": "14,158 ml and 11,456 ml and 6,329 ml and 19,728 ml and 3,726 ml and 12,966 ml and 12,179 ml and 6,496 ml and 20,184 ml and 8,328 ml and 17,784 ml and 14,629 ml and 12,930 ml and 21,155 ml and 9,162 ml"}, {"measurement": "average net fluid loss", "setting": "[2]; [5]", "value": "approximately 5.4 L"}, {"measurement": "average net sodium balance", "setting": "[2]; [5]", "value": -14, "unit": "g"}, {"measurement": "median net sodium balance", "setting": "[2]; [5]", "value": -15, "unit": "g"}, {"measurement": "increase in net fluid loss relative to control group", "setting": "[2]; treatment group vs conventional therapy (diuretic, no replacement hydration fluid), normalized 24-hour period", "value": "over 200%"}, {"measurement": "average weight loss", "setting": "[2]; treatment group, after 30 days", "value": 5.7, "unit": "kg"}, {"measurement": "average weight loss", "setting": "[2]; treatment group, at the time of patient discharge", "value": 6.8, "unit": "kg"}, {"measurement": "average net fluid loss (not including oral fluid intake)", "setting": "[2]; treatment group, over an average therapy timespan of 31 hours", "value": "~7", "unit": "L"}, {"measurement": "patients who regained the weight lost during therapy or were readmitted for additional treatment", "setting": "[2]; treatment group, over the 30 days", "value": "none"}]}
